Experiments:
TPα^WT = target: T1, TPα^WT (Homo sapiens, UniProt P21731); assay: [3H]SQ29,548 radioligand binding, Scatchard analysis, HEK.TPα^WT
T1 construct: expressed in transfected cells
Method: Cells were harvested by centrifugation at 500×g at 4 °C for 5 min and washed three times with ice-cold Ca^2+/Mg^2+-free phosphate-buffered saline (PBS). TP radioligand binding assays were carried out at 30 °C for 30 min in 100 μl reactions in the presence of 0–40 nM [^3H] […] Protein determinations were carried out using the Bradford assay.
Radioligand binding and Scatchard analysis data were analysed using GraphPad Prisim V4.0 programme (GraphPad Software Inc., San Diego CA, USA). Statistical analyses were carried out using the unpaired Student's t test using the Statworks Analysis Package. p-values ≤ 0.01 indicated statistically significant differences.

TPα^S340A = target: T2, TPα^S340A (Homo sapiens, UniProt P21731, S340A); assay: Intracellular calcium mobilization, HEK.TPα^S340A cells; assay type: cell-based
T2 construct: expressed in transfected cells
T2 sequence (P21731 1-343 S340A): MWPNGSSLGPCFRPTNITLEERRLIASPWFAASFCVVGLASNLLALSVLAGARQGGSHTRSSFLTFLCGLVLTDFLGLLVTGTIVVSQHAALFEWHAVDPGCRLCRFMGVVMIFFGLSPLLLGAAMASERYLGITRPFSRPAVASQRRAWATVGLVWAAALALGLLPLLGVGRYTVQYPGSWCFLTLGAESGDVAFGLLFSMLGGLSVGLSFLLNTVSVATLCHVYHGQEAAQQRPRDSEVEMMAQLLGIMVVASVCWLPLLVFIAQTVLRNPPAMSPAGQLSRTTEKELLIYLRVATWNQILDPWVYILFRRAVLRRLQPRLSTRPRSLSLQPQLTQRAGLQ
Method: Measurement of intracellular calcium mobilization ([Ca^2+]i) in FURA2/AM preloaded HEK 293 cell lines (2 × 10^6 cells/dish), each transiently co-transfected with pADVA (10 μg), and pCMV:Gαq (25 μg), was carried out as previously described. To investigate the effect of GRK2/βARK1 on TP-mediated [Ca^2+]i mobilization, HEK.TPα or HEK.TPβ cells (2 × 10^6 cells/dish) were co-transfected with pADVA (10 μg), pCMV:Gαq (25 μg) along with pRK5:βARK1^495–689 (25 μg), encoding a dominant negative form of GRK2/βARK1[39]. […] For each measurement of [Ca^2+]i mobilization, aliquots of cells were diluted to 0.825 × 10^6 cells/ml in HBSSHB, 1 mM CaCl2 and FURA2 fluorescence was recorded (2 ml aliquots of cells) at 37^ °C with gentle stirring with a Perkin Elmer-Cetus LS50-B spectrofluorometer at excitation wavelengths of 340 nm and 380 nm and emission wavelength of 510 nm, respectively.
Cells were stimulated with the TP agonist U46619 (1 μM) and changes in [Ca^2+]i mobilization were monitored as a function of time. […]
The vehicle had no effect on U46619-mediated [Ca^2+]i mobilization. Calibration of the signal was performed in each sample by adding 0.2% Triton X-100 to obtain the maximal fluorescence ratio (Rmax) and then 1 mM EGTA to obtain the minimal fluorescence ratio (Rmin). […]

T1 sequence (P21731 whole entry): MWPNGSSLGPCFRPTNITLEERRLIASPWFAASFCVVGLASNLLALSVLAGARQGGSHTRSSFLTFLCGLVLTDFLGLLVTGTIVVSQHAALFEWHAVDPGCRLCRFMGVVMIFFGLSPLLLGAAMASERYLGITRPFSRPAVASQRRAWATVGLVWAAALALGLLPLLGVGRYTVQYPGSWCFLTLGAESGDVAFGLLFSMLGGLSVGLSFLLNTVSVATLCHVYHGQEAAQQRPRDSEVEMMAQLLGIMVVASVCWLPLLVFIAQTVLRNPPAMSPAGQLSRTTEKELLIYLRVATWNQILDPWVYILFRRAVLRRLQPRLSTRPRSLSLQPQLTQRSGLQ

O=C(O)CCC/C=C\C[C@@H]1[C@H](CNNC(=O)Nc2ccccc2)[C@H]2CC[C@@H]1O2 [SQ29,548]
Bmax (pmol/mg protein ± S.E.M.) (TPα^WT): 4.52 ± 0.05 pmol/mg protein

CCCCC[C@H](O)/C=C/[C@@H]1[C@@H](C/C=C\CCCC(=O)O)[C@H]2CO[C@@H]1C2 [U46619]
Δ[Ca2+]i, U46619-induced (TPα^S340A; primary 1 μM U46619 4 min): 180 ± 6.1 nM | Δ[Ca2+]i, U46619-induced (TPα^S340A; secondary 1 μM U46619 at 15 min): 0 nM
